Laboratory results taken from patent US5284870A, “Aldose reductase inhibitor” (Shionogi Seiyaku Kabushiki Kaisha, priority 1992, dated 1994).

Target: T1, aldose reductase (Rattus norvegicus, UniProt P07943)
T1 construct: Lenses were removed from 20 eyeballs of rats and homogenized in 4 ml of 5 mM mercaptethanol; from tissue; host or cells: rat lens, 10,000 rpm supernatant of homogenate
Test: Aldose reductase-inhibiting activity (absorbance change at 340 nm, homogenate of rat lenses as enzyme source, glyceroaldehyde substrate, NADPH coenzyme)
Type: biochemical
Conditions: rat lens homogenate, 10 mM D,L-glyceroaldehyde, 0.4M Li2SO4, initial one minute
Protocol: The change in absorbance at 340 nm for initial one minute was measured, and the inhibiting activity was determined.
Lenses were removed from 20 eyeballs of rats and homogenized in 4 ml of 5 mM mercaptethanol using Glass-Teflon Homogenate. The obtained homogenate was centrifuged at 4° C. and 10,000 rpm for 20 minutes, and resulting supernatant was used as the enzyme source.

Ic50 (mass concentration) [ng/mL]	IC50 (molar value in parentheses) [nM]	IC50 (mass concentration) [nM]	SMILES
1.6	4.2		O=C(O)CCC1(O)OC2=CC(=O)c3c(O)cc(O)cc3C2=C1c1ccccc1 (stereo not drawn) [RF-3192 B]
130	340		O=C1C=C2OC3(O)CC(=O)c4c(O)cc(O)cc4C3=C2c2cc(O)cc(O)c21 (stereo not drawn) [RF-3192 C]
	8.2	8.33	O=C(O)CCC1(O)OC2=CC(=O)c3c(O)cc(O)cc3C2=C1c1ccc(O)cc1 (stereo not drawn) [RF-3192 A]
